Measurements published in patent publication US20190298715A1, “IMMUNE EFFECTOR CELL THERAPIES WITH ENHANCED EFFICACY” (Novartis AG, priority 2016, published 2019).

Tests used:
full-length LSD1 = target: T1, full-length LSD1 (Homo sapiens, UniProt O60341); assay: FL-LSD1 LC-MS assay; format: biochemical; conditions: 0.4 nM FL-LSD1, 0.25 μM FAD, 0.5 μM H3K4me1 peptide, 60 min; read-out: LCMS IC50 (LSD1 IC50 as measured by LCMS)
T1 construct: the full-length LSD1 and 0.5 μM FAD in reaction buffer
Protocol: Representative compounds of the present disclosure were serially and separately diluted 3-fold in DMSO to obtain a total of twelve concentrations. […] A 5 μL solution of 1 μM of the peptide substrate H3K4me1 (histone H3[1-21]-biotin) in reaction buffer was added to each initiate reaction. […] The conversion ratio of H3K4me1 substrate to the H3K4me0 product was calculated by dividing the peak area of the H3K4me0 peptide by the total peak area of all those two peptides on the assumption that the ionization efficiency of those peptides is the same. The data were then fit to a dose response equation using the program Helios to get the IC50 values of the test compound.

human T cells = assay: T cell phenotype after anti-CD3/CD28 expansion with LSD1 shRNA (flow cytometry); format: cell-based; conditions: 10 days anti-CD3/CD28 expansion, transfected with DNA encoding shRNA
Protocol: Flow cytometry was performed on a four laser Fortessa (Becton-Dickinson).
Inhibition of LSD1 by shRNA promotes the expansion of TSCM cells T cells were isolated by negative selection and expanded with anti-CD3/CD28 beads at a 3:1 ratio for 10 days. On day 1, T cells were transduced with lentiviral expression vectors containing LSD1 shRNA targeting sequences that co-expressed the fluorescent protein mCherry. Following expansion, T cell phenotypes of mCherry+ T cells were assessed by flow cytometry.

Molecule	IC50 (full-length LSD1) [nM]	percentage of CD4+ T cells having the TSCM (CD45RA+CD62L+CCR7+CD27+CD95+) phenotype (human T cells)	percentage of CD8+ T cells having the TSCM (CD45RA+CD62L+CCR7+CD27+CD95+) phenotype (human T cells) [%]
CS(=O)(=O)c1ccc(-c2cc(-c3cc(C#N)c(N4CCNCC4)[nH]3)ccc2Cl)cc1 [5-(6-chloro-4′-(methylsulfonyl)biphenyl-3-yl)-2-(piperazin-1-yl)-1H-pyrrole-3-carbonitrile]	12		
CN(C)C1CCN(S(=O)(=O)c2ccc(-n3ncc4c(-c5ccc(C6CCNCC6)cc5)cccc43)cc2)CC1 [N,N-dimethyl-1-((4-(4-(4-(piperidin-4-yl)phenyl)-1H-indazol-1-yl)phenyl)sulfonyl)piperidin-4-amine]	9		
COc1ccc(-n2cc(-c3cccc(N)c3C)c3cc(C#N)c(C)cc32)cc1 [NVS Compound 2, 3-(3-amino-2-methylphenyl)-1-(4-methoxyphenyl)-6-methyl-1H-indole-5-carbonitrile]	5		
LSD1 2: shRNA to LSD1, encoded by SEQ ID NO: 127 (DNA CAGAAGGCCTAGACATTAAACCTCGAGGTTTAATGTCTAGGCCTTCTGTTTTTTGA; the letters are possibly those of the target site)		enriched in TSCM	~50
LSD1 1A: shRNA to LSD1, encoded by SEQ ID NO: 125 (nucleic acid) DNA: CGGTTGCTAGAAGCTACATCTGTTAATATTCATAGCAGATGTAGCTTCTAGCAACCGTTTTTTGA		enriched in TSCM	~50
LSD1 1B: shRNA to LSD1, encoded by SEQ ID NO: 126 (nucleic acid, the letters are possibly those of the target site) DNA: CGGTTGCTAGAAGTTACATTTGTTAATATTCATAGCAGATGTAGCTTCTAGCAACCGTTTTTTGA		up to 20%	~50
